Measurements published in patent US7553105B1, “Method and compositions for treatment of subsurface contaminants” (Colorado School of Mines, priority 2005, dated 2009).
≈ marks a conversion by molar mass, not a printed value. Where “and” joins values, the source holds several entries; their conditions need not be identical. Identical values can stand only once. Like-named read-outs stand apart in the source and are kept apart here. Marks after values point to notes of the source that are not given here.

Columns and labels:
[1] = Example 3 batch compatibility of cosolvents and surfactants with permanganate; settings: 5,000 mg/L KMnO4; 24-48 hr observation
Method: Batch studies were performed to evaluate the compatibility of alcohol cosolvents and surfactants for use with oxidants during treatment of DNAPLs.

[2] = literature; cited from earlier work
[3] = Density of 3.5 wt % Dowfax 8390 solution; settings: 3.5 wt % solution, 23° C., average of five measurements
[4] = Batch screening for compatibility of surfactants/cosolvents with KMnO4; settings: for effect of surfactant concentration on compatibility with permanganate: FIG. 1
Method: Seventy two surfactants were tested alone or in the presence of cosolvents to determine compatibility with KMnO4. Concentrations for each constituent corresponded to one of two remediation scenarios: (1) a relatively high wt-% of surfactants, i.e., 1-10 wt-%, is coupled with oxidants representative of conditions where a surfactant flush is conducted and followed by one or more water flushes, with high levels of surfactant remaining when the oxidant is introduced (note that this scenario could also represent co-injection of surfactant and oxidant); and (2) a relatively low wt-% of surfactant, i.e., 0.01-0.1 wt-%, is coupled with oxidants representative of conditions where a surfactant flush is conducted by water flush with low levels of surfactant remaining when the oxidant is introduced.
The two cases are representative of the range of possible concentrations that may be encountered during pre- and post-remedial agent flushing scenarios. […] Potassium permanganate concentrations of 500 mg/L to 5,000 mg/L were used in the screening tests, these concentrations being representative for both laboratory conditions and field applications.
Solutions containing surfactant alone, cosolvent alone, or mixtures of surfactant and cosolvent were used in the batch screening studies. Qualitative and quantitative criteria were used to define a compatible coupling. For example, a bright purple color provides a visual qualitative assessment regarding oxidant consumption, therefore solutions that remained bright purple with relatively few manganese dioxide solids generated throughout the 24-hour reaction period were deemed compatible.
The batch screening samples were prepared in 40 ml type A borosilicate glass vials with Teflon®-lined septa. The desired surfactant concentration (corrected for active weight percent) was weighed and dispensed into each sample vial. Thirty milliliters of a 5,000 mg/L KMnO4 solution prepared with de-ionized water was dispensed into each vial. If cosolvent was present, the desired weight percent was added to the vial on a vol/vol basis. The total sample volume was 30-ml, leaving 10-ml of headspace in the event of gas or foam generation. The vials were shaken until the solutions were well mixed.
Visual observation on each vial was made at three, twenty-four and forty-eight hours. The amount of oxidant remaining in the surfactant, or surfactant/cosolvent, solution was determined with a Hach DR/4000 Ultraviolet Spectrophotometer (UV Spec.). A 0.1 ml aliquot of sample was filtered with a 10-micron filter and dispensed into a 10-ml vial, followed by addition of 9.9 mLs of de-ionized water. The resultant solution has a permanganate dilution of less than 50 mg/L (ideal absorbance measurement range). Samples were analyzed at 525 nm for KMnO4 with final concentrations derived from a 6-point standard calibration curve.

[5] = Batch surfactant sorption experiments; assay type: physicochemical; settings: medium-grained laboratory sand
Description: Adsorption isotherms of ionic surfactants onto charged sites are typically approximated using a Langmuir model (Rosen, 1989).

[6] = Interfacial tension, DuNuoy ring tensiometer; settings: 3.5 wt % Dowfax 8390 solution equilibrated with PCE, average of five measurements
[7] = vendor data, cited from earlier work
[8] = Solubility in water 20° C.; assay type: physicochemical; settings: measured for this study
[9] = maximum contaminant level, USEPA; cited from earlier work
[10] = Solubility of PCE in surfactants, co-surfactants and electrolytes versus water alone; assay type: physicochemical
Method: Co-surfactants and electrolytes serve to further enhance the solubilization capacity of any given surfactant.
Therefore use of equilibrium values in the prediction of surfactant enhanced remediation performance may result in the underestimation of remediation times and costs.
PCE concentrations were determined using a Hewlett-Packard gas chromatograph (GC) equipped with auto-ampler and electron capture detector (ECD).

[11] = 25° C.; cited from earlier work
[12] = 3-hour observation, 3.5 wt % surfactant + 5000 mg/L KMnO4
[13] = 24-hour observation, 3.5 wt % surfactant + 5000 mg/L KMnO4
[14] = MnO4^− loss, 3-hour observation, 3.5 wt % surfactant + 5000 mg/L KMnO4
[15] = MnO4^− loss, 24-hour observation, 3.5 wt % surfactant + 5000 mg/L KMnO4

Q: Which “Relative Amount of MnO2 Solids Generated” value [1] does the source give for “Sodium hexadecyl diphenyl oxide disulfonate [Dowfax 8390]” here?
A: Few

Q: What about the “Solution Color” value [1] of the same compound?
A: Dark

Q: What about the “sorption to aquifer materials” value [2] of the same compound?
A: low sorption to aquifer materials

Q: What about the Density [3] of the same compound?
A: 1.007^c g/cm^3

Q: And the compatibility with permanganate [4]?
A: compatible with permanganate

Q: What about the “Average MnO4^−” value [4, 12] of the same compound?
A: 4458 mg/L

Q: And the “Average MnO4^−” value [4, 13]?
A: 3980 mg/L

Q: What about the “effect of surfactant concentration on compatibility with permanganate” value [4] of the same compound?
A: not dependent on surfactant concentration

Q: And the “% mass loss” value [4, 14]?
A: 10%

Q: What about the “% mass loss” value [4, 15] of the same compound?
A: 23%

Q: And the “sorption to laboratory sand” value [5]?
A: negligible

Q: What about the “Interfacial Tension” value [6] of the same compound?
A: 8.5^c dyne/cm

Q: And the CMC ([7]; critical micelle concentration)?
A: 140 mg/L

Q: And the HLB [7]?
A: 78.6

Q: Which results are given for `CCCCCCCCCCCCc1ccc(S(=O)(=O)O)cc1` [SDBS]?
A: Average MnO4^− [4, 12]: 3442 mg/L; Average MnO4^− [4, 13]: 1896 mg/L; % mass loss [4, 14]: 29%; % mass loss [4, 15]: 61%

Q: What does the source list for `ClC(Cl)=C(Cl)Cl` [PCE, tetrachloroethene]?
A: solubility [8]: 250 µg/mL (≈ 1510 µM); MCL [9]: 0.005 mg/L; 5% Dowfax + 3% AOT: PCE ([10]; in 5% Dowfax + 3% AOT): 31,954 mg/L; 5% Dowfax + 3% AOT + 3% NaBr: PCE ([10]; in 5% Dowfax + 3% AOT + 3% NaBr): 107,284 mg/L; 5% SDS + 3% AOT: PCE ([10]; in 5% SDS + 3% AOT): 21,410 mg/L; 5% SDS + 3% AOT + 3% NaBr: PCE ([10]; in 5% SDS + 3% AOT + 3% NaBr): 62,700 mg/L; PCE in water only ([10]; water only): 200 mg/L

Q: With `CCCCCCCC` [n-Octane] as the compound, how does the Solubility in water [11] read?
A: 0.72 µg/mL (≈ 6.3 µM)

Q: For `c1ccccc1` [Benzene], which MCL [9] is on record?
A: 0.005 mg/L

Q: Which Solubility in water [11] does the source give for `Cl[C@H]1[C@H](Cl)[C@@H](Cl)[C@@H](Cl)[C@H](Cl)[C@H]1Cl` [Lindane (herbicide), Lindane] here?
A: 7.3 µg/mL (≈ 25.1 µM)

Q: For `CC(C)=O` [Acetone], which “% mass loss” value [4] is on record?
A: 98%

Q: With `Clc1cc2c(cc1Cl)Oc1cc(Cl)c(Cl)cc1O2` [Dioxin (2,3,7,8-TCDD), 2,3,7,8-TCDD] as the compound, how does the Solubility in water [11] read?
A: 1.9e-09 µg/mL (≈ 5.9e-09 µM)

Q: What about the MCL [9] of the same compound?
A: 3e-08 mg/L

Q: Which Solubility in water [11] does the source give for `Clc1ccccc1` [Chlorobenzene] here?
A: 472 µg/mL (≈ 4190 µM)

Q: With `Cc1ccccc1C` [o-Xylene] as the compound, how does the Solubility in water [11] read?
A: 175 µg/mL (≈ 1650 µM)

Q: For `c1ccc2c(c1)ccc1ccccc12` [Phenanthrene (PAH), Phenanthrene], which Solubility in water [11] is on record?
A: 6.2 µg/mL (≈ 34.8 µM)

Q: What about the MCL [9] of the same compound?
A: 0.0002 mg/L

Q: Which Solubility in water [11] does the source give for `CCc1ccccc1` [Ethylbenzene] here?
A: 152 µg/mL (≈ 1430 µM)

Q: And the MCL [9]?
A: 0.7 mg/L

Q: Which “Relative Amount of MnO2 Solids Generated” value [1] does the source give for `CC(C)(C)O` [tert-butanol] here?
A: None

Q: What about the “Solution Color” value [1] of the same compound?
A: Dark

Q: What about the “% mass loss” value [4] of the same compound?
A: 2% and 4%

Q: What about the “Average MnO4^−” value [4] of the same compound?
A: 5075 mg/L and 4986 mg/L

Q: For `CCCCCCCCCCCCOS(=O)(=O)[O-].[Na+]` [SDS, sodium dodecyl sulfate], which compatibility with permanganate [4] is on record?
A: compatible with permanganate

Q: And the “Average MnO4^−” value [4, 12]?
A: 4523 mg/L

Q: What about the “Average MnO4^−” value [4, 13] of the same compound?
A: 4393 mg/L

Q: And the “% mass loss” value [4, 14]?
A: 6%

Q: And the “% mass loss” value [4, 15]?
A: 20%

Q: Which Solubility in water [11] does the source give for `Cc1ccc(C)cc1` [p-Xylene] here?
A: 210 µg/mL (≈ 1980 µM)

Q: And the MCL [9]?
A: 10 mg/L

Q: For `ClC=C(Cl)Cl` [Trichloroethene, trichloroethene], which MCL [9] is on record?
A: 0.005 mg/L

Q: With `c1ccc2ccccc2c1` [Napthalene (PAH), Napthalene] as the compound, how does the Solubility in water [11] read?
A: 33 µg/mL (≈ 257 µM)

Q: And the MCL [9]?
A: 0.0002 mg/L

Q: Which Solubility in water [11] does the source give for `CCCCCCCCCC` [n-Decane] here?
A: 0.053 µg/mL (≈ 0.372 µM)

Q: For `CCCCCCCC/C=C\CCCCCCCC(=O)OCCOCC(OCCO)C1OCC(OCCO)C1OCCO` (centres unmarked) [Tween 80, polyoxyethylene (20) sorbitan monooleate], which “effect of surfactant concentration on compatibility with permanganate” value [4] is on record?
A: only compatible at low residual levels with permanganate

Q: And the “% mass loss” value [4, 14]?
A: 100%

Q: And the “% mass loss” value [4, 15]?
A: 100%

Q: Which “Average MnO4^−” value [4, 12] does the source give for “(C16 linear) Sodium diphenyl oxide sulfonate [Calfax 16L-35]” here?
A: 4340 mg/L

Q: And the “Average MnO4^−” value [4, 13]?
A: 4183 mg/L

Q: And the “% mass loss” value [4, 14]?
A: 14%

Q: And the “% mass loss” value [4, 15]?
A: 15%
